{
  "source": "patent US8354455B2",
  "about": "“Prodrugs containing novel bio-cleavable linkers” (Piramal Enterprises Limited and Apparao Satyam, priority 2004, dated 2013)",
  "key": {"[1]": {"tested_on": "rats", "test": "Neurotoxicity, rats p.o. (Test 2 and Test 3)", "conditions": "Test 2, rats p.o."}, "[2]": {"tested_on": "convulsant metrazol", "test": "Subcutaneous Metrazol Seizure Threshold Test (scMET), Test 1, mice i.p.", "format": "in vivo", "conditions": "for ScMET 0.5 h / minimal effective dose / ScMET 4.0 h: symbol = dose with activity; for minimal effective dose: Mus musculus, ip"}, "[3]": {"tested_on": "mice", "conditions": "for toxicity (in words): Test 1, mice i.p.; for Rotorod Toxicity 0.5 h / Rotorod Toxicity 4.0 h / Rotorod Toxicity (number of animals exhibiting toxicity/number of animals tested): mice, i.p.; for Rotorod Toxicity 0.5 h / Rotorod Toxicity 4.0 h: symbol = dose with toxicity; for Rotorod Toxicity 0.5 h / Rotorod Toxicity (number of animals exhibiting toxicity/number of animals tested): 0.5 h"}, "[4]": {"tested_on": "MES-induced seizures", "test": "Maximal Electroshock Test (MES), Test 1, mice i.p.", "format": "in vivo", "conditions": "for activity in MES model (in words): Test 1, mice i.p.; for MES 0.5 h / MES 4.0 h / minimal effective dose: symbol = dose with activity; for MES, at 2 hours after dosing: 2 h (footnote h; printed in 4.0 h column); for minimal effective dose: Mus musculus, ip"}, "[5]": {"tested_on": "MES-induced seizures", "test": "animal or person", "format": "in vivo, rats", "conditions": "Test 2, rats p.o., 150 mg/kg"}, "[6]": {"conditions": "0.5 h, read-out: ScMET 0.5 h, mice, i.p., 0.5 h"}, "[7]": {"conditions": "4 h, read-out: ScMET 4.0 h, mice, i.p., 4.0 h"}, "[8]": {"conditions": "0.5 h, read-out: MES 0.5 h, mice, i.p., 0.5 h"}, "[9]": {"conditions": "4 h, read-out: MES 4.0 h, mice, i.p., 4.0 h"}, "[10]": {"conditions": "mice, i.p., 4.0 h, 300 mg/kg (+)"}, "[11]": {"conditions": "mice, i.p., 0.5 h, 300 mg/kg (+)"}},
  "note": "“Also recorded” adds a separate entry of the source. Where two headings read alike, the source gives them in different places. Marks after values point to notes of the source that are not given here.",
  "data": [
    {"smiles": "Nc1nc(NC(=O)OCCSSCCOC(=O)c2cccnc2)nnc1-c1cccc(Cl)c1Cl", "note": "[I-CA-MPD24]", "values": [
      {"measurement": "Toxicity (number of animals exhibiting toxicity/number of animals tested)", "setting": "[1]; 30 mg/kg, 0.50 h", "value": "0/4"},
      {"measurement": "Toxicity (number of animals exhibiting toxicity/number of animals tested)", "setting": "[1]; 30 mg/kg, 1.00 h", "value": "0/4"},
      {"measurement": "Toxicity (number of animals exhibiting toxicity/number of animals tested)", "setting": "[1]; 30 mg/kg, 2.00 h", "value": "0/4"},
      {"measurement": "Toxicity (number of animals exhibiting toxicity/number of animals tested)", "setting": "[1]; 30 mg/kg, 4.00 h", "value": "0/4"},
      {"measurement": "activity in scMET model (in words)", "setting": "[2]; Test 1, mice i.p.", "value": "active"},
      {"measurement": "ScMET 0.5 h", "setting": "[2]; mice, i.p., 0.5 h", "value": "— (— = no activity or no toxicity at 300 mg/kg)"},
      {"measurement": "toxicity (in words)", "setting": "[3]", "value": "non-toxic; also recorded: no or mild toxicity"},
      {"measurement": "Rotorod Toxicity 0.5 h", "setting": "[3]", "value": "— (— = no activity or no toxicity at 300 mg/kg)"},
      {"measurement": "Rotorod Toxicity 4.0 h", "setting": "[3]", "value": "— (— = no activity or no toxicity at 300 mg/kg)"},
      {"measurement": "activity in MES model (in words)", "setting": "[4]", "value": "active in MES"},
      {"measurement": "MES 0.5 h", "setting": "[4]; mice, i.p., 0.5 h", "value": "— (— = no activity or no toxicity at 300 mg/kg)"},
      {"measurement": "MES, at 2 hours after dosing", "setting": "[4]; mice, i.p.", "value": "++ (++ = activity or toxicity at 100 mg/kg)"},
      {"measurement": "MES (number of animal protected/number of animal tested)", "setting": "[4]; mice, i.p., 2 h after dosing, 100 mg/kg (++)", "value": "(3/3)^h"},
      {"measurement": "MES 4.0 h", "setting": "[4]; mice, i.p., 4.0 h", "value": "++ (++ = activity or toxicity at 100 mg/kg)"},
      {"measurement": "MES, at 6 hours after dosing", "setting": "[4]; mice, i.p., 6 h (footnotes g, m; printed in 4.0 h column)", "value": "++ (++ = activity or toxicity at 100 mg/kg)"},
      {"measurement": "MES (number of animal protected/number of animal tested)", "setting": "[4]; mice, i.p., 6 h after dosing, 100 mg/kg (++)", "value": "(3/3)^m"}
    ]},
    {"smiles": "CCOC(=O)CC1(CNC(=O)OCCSSCCO[N+](=O)[O-])CCCCC1", "note": "[I-A1-NOPD1]", "values": [
      {"measurement": "minimal effective dose", "setting": "[2]; [6]", "value": "> 300", "unit": "mg/kg"},
      {"measurement": "minimal effective dose", "setting": "[2]; [7]", "value": "> 300", "unit": "mg/kg"},
      {"measurement": "Rotorod Toxicity 4.0 h", "setting": "[3]", "value": "— (— = no activity or no toxicity at 300 mg/kg)"},
      {"measurement": "minimal effective dose", "setting": "[4]; [8]", "value": "< 300", "unit": "mg/kg"},
      {"measurement": "minimal effective dose", "setting": "[4]; [9]", "value": "> 300", "unit": "mg/kg"},
      {"measurement": "MES, at 0.25 hours after dosing", "setting": "[4]; mice, i.p., 0.25 h (footnote k; printed in 0.5 h column)", "value": "++ (++ = activity or toxicity at 100 mg/kg)"}
    ]},
    {"smiles": "CCOC(=O)CC1(CNC(=O)OCCSSCCOC(=O)NCCN(C)C)CCCCC1", "note": "[I-A1-PD10]", "values": [
      {"measurement": "minimal effective dose", "setting": "[2]; [6]", "value": "> 300", "unit": "mg/kg"},
      {"measurement": "minimal effective dose", "setting": "[2]; [7]", "value": "> 300", "unit": "mg/kg"},
      {"measurement": "Rotorod Toxicity (number of animals exhibiting toxicity/number of animals tested)", "setting": "[3]; 100 mg/kg (++)", "value": "(8/8)^j"},
      {"measurement": "Rotorod Toxicity 0.5 h", "setting": "[3]", "value": "++ (++ = activity or toxicity at 100 mg/kg)"},
      {"measurement": "minimal effective dose", "setting": "[4]; [8]", "value": "> 300", "unit": "mg/kg"},
      {"measurement": "minimal effective dose", "setting": "[4]; [9]", "value": "> 300", "unit": "mg/kg"}
    ]},
    {"smiles": "Cl.Nc1nc(NC(=O)OCCSSCCNC(=O)c2cccnc2)nnc1-c1cccc(Cl)c1Cl", "note": "[I-CA-MPD25]", "values": [
      {"measurement": "Toxicity (number of animals exhibiting toxicity/number of animals tested)", "setting": "[1]; 30 mg/kg, 0.50 h", "value": "0/4"},
      {"measurement": "Toxicity (number of animals exhibiting toxicity/number of animals tested)", "setting": "[1]; 30 mg/kg, 1.00 h", "value": "0/4"},
      {"measurement": "Toxicity (number of animals exhibiting toxicity/number of animals tested)", "setting": "[1]; 30 mg/kg, 2.00 h", "value": "0/4"},
      {"measurement": "Toxicity (number of animals exhibiting toxicity/number of animals tested)", "setting": "[1]; 30 mg/kg, 4.00 h", "value": "0/4"},
      {"measurement": "ScMET 0.5 h", "setting": "[2]; mice, i.p., 0.5 h", "value": "— (— = no activity or no toxicity at 300 mg/kg)"},
      {"measurement": "ScMET 4.0 h", "setting": "[2]; mice, i.p.", "value": "— (— = no activity or no toxicity at 300 mg/kg)"},
      {"measurement": "toxicity (in words)", "setting": "[3]", "value": "no or mild toxicity"},
      {"measurement": "Rotorod Toxicity 0.5 h", "setting": "[3]", "value": "— (— = no activity or no toxicity at 300 mg/kg)"},
      {"measurement": "Rotorod Toxicity 4.0 h", "setting": "[3]", "value": "— (— = no activity or no toxicity at 300 mg/kg)"},
      {"measurement": "activity in MES model (in words)", "setting": "[4]", "value": "active in MES"},
      {"measurement": "MES (number of animal protected/number of animal tested)", "setting": "[4]; [10]", "value": "(1/1)"}
    ]},
    {"smiles": "CCOC(=O)CC1(CNC(=O)OCCSSCCO)CCCCC1", "note": "[I-A1-PD8]", "values": [
      {"measurement": "minimal effective dose", "setting": "[2]; [6]", "value": "> 300", "unit": "mg/kg"},
      {"measurement": "minimal effective dose", "setting": "[2]; [7]", "value": "> 300", "unit": "mg/kg"},
      {"measurement": "ScMET (number of animal protected/number of animal tested)", "setting": "[2]; [11]", "value": "(1/1)"},
      {"measurement": "Rotorod Toxicity (number of animals exhibiting toxicity/number of animals tested)", "setting": "[3]; 300 mg/kg (+)", "value": "(4/4)^f"},
      {"measurement": "Rotorod Toxicity 4.0 h", "setting": "[3]", "value": "— (— = no activity or no toxicity at 300 mg/kg)"},
      {"measurement": "minimal effective dose", "setting": "[4]; [9]", "value": "> 300", "unit": "mg/kg"},
      {"measurement": "MES (number of animal protected/number of animal tested)", "setting": "[4]; mice, i.p., 0.5 h, 100 mg/kg (++)", "value": "(2/3)"},
      {"measurement": "MES (number of animal protected/number of animal tested)", "setting": "[4]; [11]", "value": "(1/1)"},
      {"measurement": "MES (number of animal protected/number of animal tested)", "setting": "[4]; [10]", "value": "(1/1)"}
    ]},
    {"smiles": "CCCC(CCC)C(=O)OCCSSCCOC(=O)Nc1nnc(-c2cccc(Cl)c2Cl)c(N)n1", "note": "[I-CA-MPD23]", "values": [
      {"measurement": "MES (number of animal protected/number of animal tested)", "setting": "[5]; 4.00 h", "value": "4/4"},
      {"measurement": "MES (number of animal protected/number of animal tested)", "setting": "[5]; 6.00 h", "value": "4/4"},
      {"measurement": "MES (number of animal protected/number of animal tested)", "setting": "[5]; 8.00 h", "value": "4/4"},
      {"measurement": "Toxicity (number of animals exhibiting toxicity/number of animals tested)", "setting": "[1]; 150 mg/kg, 2.00 h", "value": "0/4"},
      {"measurement": "Toxicity (number of animals exhibiting toxicity/number of animals tested)", "setting": "[1]; 150 mg/kg, 4.00 h", "value": "0/4"},
      {"measurement": "Toxicity (number of animals exhibiting toxicity/number of animals tested)", "setting": "[1]; 150 mg/kg, 6.00 h", "value": "0/4"},
      {"measurement": "Toxicity (number of animals exhibiting toxicity/number of animals tested)", "setting": "[1]; 150 mg/kg, 8.00 h", "value": "0/4"},
      {"measurement": "ScMET 0.5 h", "setting": "[2]; mice, i.p., 0.5 h", "value": "— (— = no activity or no toxicity at 300 mg/kg)"},
      {"measurement": "ScMET 4.0 h", "setting": "[2]; mice, i.p.", "value": "— (— = no activity or no toxicity at 300 mg/kg)"},
      {"measurement": "toxicity (in words)", "setting": "[3]", "value": "no or mild toxicity"},
      {"measurement": "activity in MES model (in words)", "setting": "[4]", "value": "active in MES"},
      {"measurement": "MES 0.5 h", "setting": "[4]; mice, i.p., 0.5 h", "value": "— (— = no activity or no toxicity at 300 mg/kg)"},
      {"measurement": "MES, at 2 hours after dosing", "setting": "[4]; mice, i.p.", "value": "++ (++ = activity or toxicity at 100 mg/kg)"},
      {"measurement": "MES (number of animal protected/number of animal tested)", "setting": "[4]; [10]", "value": "(1/3)"},
      {"measurement": "MES 4.0 h", "setting": "[4]; mice, i.p., 4.0 h", "value": "+ (+ = activity or toxicity at 300 mg/kg)"}
    ]}
  ]
}
